These results are taken from patent publication US9029388B2, “Condensed heterocyclic compound” (Takeda Pharmaceutical Company Limited, priority 2011, dated 2015).

Series [1] deals with T1, human PDE10A enzyme (Homo sapiens, UniProt Q9Y233).
T1 construct: Human PDE10A full-length gene was transfected into Sf9 or COS-7 cells; His-tag; made in house; host or cells: Sf9 or COS-7 cells
Description: PDE10A enzyme activity inhibition test (Scintillation Proximity Assay, [3H]cGMP substrate). It is filed as biochemical. The note with it: control without compound = 0%, without compound and enzyme = 100%; for inhibition at 0.1 µM: compound 0.1 μM, read-out: Inhibitory rate (%) (0.1 μM); for inhibition at 10 µM: compound 10 μM, read-out: Inhibitory rate (%) (10 μM). The method, then:
Human PDE10A full-length gene was transfected into Sf9 or COS-7 cells. The cells were disrupted and centrifuged, and human PDE10A enzyme was obtained from the residue. The enzyme extracted from Sf9 cells was partially purified using His-tag affinity column. The enzyme was stored at −70° C. until use.
The PDE 10A enzyme activity was measured using an Scintillation Proximity Assay (SPA, GE Healthcare). To measure the inhibitory activity of the test compound, 10 μL of serially diluted test compound was reacted with 20 μL of PDE 10A enzyme in an assay buffer (50 mM HEPES-NaOH, 8.3 mM MgCl2, 1.7 mM EGTA, 0.1% BSA (pH 7.4)) for 30 min at room temperature. The final concentration of DMSO in the reaction mixture was 1%.
The compounds were evaluated in duplicate in 96-well half-area plates (Corning). To start the reaction, 10 μL of substrate [3H] cGMP (25 or 50 nM; GE Healthcare and PerkinElmer, respectively) was added thereto to the total volume of 40 μL. After 60 min of reaction at room temperature, yttrium SPA beads containing zinc sulphate were added (6 mg/mL, 20 μL) to terminate the reaction. After standing still for 1 hr, the measurement was performed using a scintillation counter (PerkinElmer) and the inhibition rate was calculated. As for the inhibitory rate, the value without addition of the compound (control) was 0%, and that without addition of the compound and enzyme was 100%.
(In a scintillation proximity assay essentially only radioactivity close to the scintillant gives light.)

Series [2] concerns hyperlocomotion induced by MK-801. Description: Suppressive action on hyperlocomotion induced by MK-801. Format: in vivo, rat. The note with it: male SD rats; 1 mg/kg p.o., 60 min before MK-801 (0.3 mg/kg, s.c.); vs vehicle, Student's t-test P<0.05; FIG. 1. From the text:
Male SD rats were purchased from Charles River Laboratories Japan, Inc. (Kanagawa, Japan), and used for the experiment at the age of 8 weeks. After arrival at the vivarium, the animals were acclimated for at least 1 week. The animals were reared under a 12:12 hr light/dark cycle in a temperature- and humidity-controlled laboratory and allowed to freely take food and water.
Example 14 was suspended in 0.5% (w/v) aqueous methylcellulose solution and orally administered (p.o.). (+)-MK-801 hydrogen maleate (MK-801, Sigma-Aldrich, St Louis, State of Missouri) was dissolved in saline, and subcutaneously administered (s.c.). All drugs were dosed in a volume of 2 mL/kg body weight for rats.
Hyperlocomotion induced by psychostimulants (e.g., amphetamine, cocaine, methamphetamine, MK-801 and phencyclidine) in rodents is widely used as an animal model of psychosis (Psychopharmacology 1999, vol. 145: 237-250). Using rats, a suppressive action of a compound (Example 14) on the hyperlocomotion induced by MK-801 was tested. Until the start of the test, male SD rats (8-week-old) were acclimated in a locomotor chamber with an infrared sensor set on the upper side (Muromachi Kikai Co., Ltd., Tokyo, Japan). […] Hyperlocomotion was measured every 1 min, and the cumulative count for 120 min from the administration of MK-801 was calculated for each treatment group. […]

T1 sequence (Q9Y233 267-1055): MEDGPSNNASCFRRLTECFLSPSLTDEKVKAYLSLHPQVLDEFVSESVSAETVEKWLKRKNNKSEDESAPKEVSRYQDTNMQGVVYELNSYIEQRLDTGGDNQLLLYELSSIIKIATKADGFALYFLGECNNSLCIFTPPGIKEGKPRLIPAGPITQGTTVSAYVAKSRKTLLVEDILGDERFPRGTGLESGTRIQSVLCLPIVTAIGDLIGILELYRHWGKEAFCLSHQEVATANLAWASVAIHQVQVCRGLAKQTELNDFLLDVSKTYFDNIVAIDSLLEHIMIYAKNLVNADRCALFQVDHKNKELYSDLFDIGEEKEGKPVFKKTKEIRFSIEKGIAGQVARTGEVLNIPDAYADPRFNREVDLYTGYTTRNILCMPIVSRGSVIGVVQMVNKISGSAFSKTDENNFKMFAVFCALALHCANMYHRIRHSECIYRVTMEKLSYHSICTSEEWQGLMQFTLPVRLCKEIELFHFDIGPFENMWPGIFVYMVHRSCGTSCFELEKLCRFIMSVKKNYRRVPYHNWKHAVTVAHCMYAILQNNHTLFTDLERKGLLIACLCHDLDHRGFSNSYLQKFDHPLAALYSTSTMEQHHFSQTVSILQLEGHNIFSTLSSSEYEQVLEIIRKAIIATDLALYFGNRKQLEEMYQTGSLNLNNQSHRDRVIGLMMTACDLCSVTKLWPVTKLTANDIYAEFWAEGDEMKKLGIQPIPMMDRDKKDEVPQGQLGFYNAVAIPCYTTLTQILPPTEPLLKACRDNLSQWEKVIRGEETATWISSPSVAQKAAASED

On to `CC(C)(O)Cn1c(Oc2ccc(-n3c4ncccc4n4ccnc34)cc2)nc2ccccc21` [Example 11, 1-{2-[4-(9H-imidazo[1′,2′:1,2]imidazo[4,5-b]pyridin-9-yl)phenoxy]-1H-benzimidazol-1-yl}-2-methylpropan-2-ol], for which the melting point (in general, the temperature, or range, at which the solid turns liquid) fell in the range of 208 to 211 °C. Besides, in series [1], the inhibition at 0.1 µM stood at 104% and the inhibition at 10 µM is 106%.

As to `CCn1nc2cccnc2c1-c1ccc(Oc2nc3ccccc3n2C)cc1` [Example 4, 2-Ethyl-3-{4-[(1-methyl-1H-benzimidazol-2-yl)oxy]phenyl}-2H-pyrazolo[4,3-b]pyridine], in series [1], the inhibition at 0.1 µM worked out at 93% and the inhibition at 10 µM was 102%.

Turning to `CCc1nn(-c2ccc(Oc3nc4ccccc4n3C)cc2)c2ncccc12` [Example 8, 3-Ethyl-1-{4-[(1-methyl-1H-benzimidazol-2-yl)oxy]phenyl}-1H-pyrazolo[3,4-b]pyridine], in series [1], the inhibition at 0.1 µM is 93% and the inhibition at 10 µM was 104%.

With `COc1nn(-c2ccc(Oc3nc4ccccc4[nH]3)cc2)c2ncccc12` [Example 6, 1-[4-(1H-benzimidazol-2-yloxy)phenyl]-3-methoxy-1H-pyrazolo[3,4-b]pyridine], the inhibition at 0.1 µM in series [1] came out at 99%.

`COCCn1c(Oc2ccc(-n3c4ncccc4n4ccnc34)cc2)nc2cccnc21` [Example 14, 9-(4-{[3-(2-Methoxyethyl)-3H-imidazo[4,5-b]pyridin-2-yl]oxy}phenyl)-9H-imidazo[1′,2′:1,2]imidazo[4,5-b]pyridine] had a melting point of 178 to 182 °C. Further, in series [1], the inhibition at 0.1 µM was 96% and the inhibition at 10 µM was 105%. Moreover, the “suppression of hyperlocomotion induced by MK-801 (cumulative count 0-120 min)” value in series [2] is “significantly suppressed hyperlocomotion induced by MK-801”.

`Cn1c(Oc2ccc(-n3c4ncccc4n4ccnc34)cc2)nc2ccccc21` [Example 9, 9-{4-[(1-Methyl-1H-benzimidazol-2-yl)oxy]phenyl}-9H-imidazo[1′,2′:1,2]imidazo[4,5-b]pyridine] had a melting point of 232 to 234 °C. In series [1], the inhibition at 0.1 µM was 93% and the inhibition at 10 µM stood at 96%.

In the case of `Cn1c(=O)c2cccnc2n1-c1ccc(Oc2nc3ccccc3[nH]2)cc1` [Example 7, 1-[4-(1H-benzimidazol-2-yloxy)phenyl]-2-methyl-1,2-dihydro-3H-pyrazolo[3,4-b]pyridin-3-one], in series [1], the inhibition at 0.1 µM is 59%.

For the compound `CCn1nc2cccnc2c1-c1ccc(Oc2nc3ccccc3[nH]2)cc1` [Example 3, 3-[4-(1H-benzimidazol-2-yloxy)phenyl]-2-ethyl-2H-pyrazolo[4,3-b]pyridine], in series [1], the inhibition at 0.1 µM was 91% and the inhibition at 10 µM is 102%.

For `Cc1ccnc2c1n1ccnc1n2-c1ccc(Oc2nc3cccnc3n2C)cc1` [Example 15, 5-Methyl-9-{4-[(3-methyl-3H-imidazo[4,5-b]pyridin-2-yl)oxy]phenyl}-9H-imidazo[1′,2′:1,2]imidazo[4,5-b]pyridine], the melting point is 236 to 239 °C. In addition, in series [1], the inhibition at 0.1 µM stood at 97% and the inhibition at 10 µM amounted to 95%.

`Cn1c(Oc2ccc(-n3c4ncccc4n4ccnc34)cc2)nc2cccnc21` [Example 13, 9-{4-[(3-Methyl-3H-imidazo[4,5-b]pyridin-2-yl)oxy]phenyl}-9H-imidazo[1′,2′:1,2]imidazo[4,5-b]pyridine] had a melting point of 228 to 231 °C. For the same compound, in series [1], the inhibition at 0.1 µM worked out at 97% and the inhibition at 10 µM came out at 106%.

Regarding `COCCn1c(Oc2ccc(-n3c4nccc(C)c4n4ccnc34)cc2)nc2cccnc21` [Example 16, 9-(4-{[3-(2-Methoxyethyl)-3H-imidazo[4,5-b]pyridin-2-yl]oxy}phenyl)-5-methyl-9H-imidazo[1′,2′:1,2]imidazo[4,5-b]pyridine], the melting point was 190 to 192 °C. In series [1], the inhibition at 0.1 µM came to 98% and the inhibition at 10 µM came to 105%.

With `Cc1cn2cccc(-c3ccc(Oc4nc5ccccc5[nH]4)cc3)c2n1` [Example 1, 2-[4-(2-Methylimidazo[1,2-a]pyridin-8-yl)phenoxy]-1H-benzimidazole], in series [1], the inhibition at 0.1 µM worked out at 63% and the inhibition at 10 µM was determined as 98%.

Take `c1ccc2[nH]c(Oc3ccc(C4CCCn5ccnc54)cc3)nc2c1` (centres unmarked) [Example 5, 2-[4-(5,6,7,8-Tetrahydroimidazo[1,2-a]pyridin-8-yl)phenoxy]-1H-benzimidazole]: in series [1], the inhibition at 0.1 µM is 2% and the inhibition at 10 µM was 51%.

As to `c1ccc2[nH]c(Oc3ccc(-c4cccn5ccnc45)cc3)nc2c1` [Example 2, 2-[4-(Imidazo[1,2-a]pyridin-8-yl)phenoxy]-1H-benzimidazole], in series [1], the inhibition at 0.1 µM came out at 62% and the inhibition at 10 µM worked out at 98%.

For the compound `CCc1nn(-c2ccc(Oc3nc4cccnc4n3C)cc2)c2ncccc12` [Example 12, 3-Ethyl-1-{4-[(3-methyl-3H-imidazo[4,5-b]pyridin-2-yl)oxy]phenyl}-1H-pyrazolo[3,4-b]pyridine], in series [1], the inhibition at 0.1 µM was 99% and the inhibition at 10 µM was determined as 101%.

In the case of `CC(=O)Cn1c(Oc2ccc(-n3c4ncccc4n4ccnc34)cc2)nc2ccccc21` [Example 10, 1-{2-[4-(9H-imidazo[1′,2′:1,2]imidazo[4,5-b]pyridin-9-yl)phenoxy]-1H-benzimidazol-1-yl}propan-2-one], the melting point is 189 to 192 °C. In addition, in series [1], the inhibition at 0.1 µM was found to be 104% and the inhibition at 10 µM came to 109%.
